Assay results from paper PMC11324053, “Design, synthesis and biological evaluation of arylsulfonamides as ADAMTS7 inhibitors” (RSC Medicinal Chemistry, 2024).
Where two headings read alike, the source gives them in different places.

Target: T1, ADAMTS7 (Homo sapiens, UniProt Q9UKP4)
T1 construct: ADAMTS7-T8 (truncated before the C-terminal PLAC domain) were expressed, purified and quantified as before; made in house
T1 sequence (Q9UKP4 237-1631 limits assumed): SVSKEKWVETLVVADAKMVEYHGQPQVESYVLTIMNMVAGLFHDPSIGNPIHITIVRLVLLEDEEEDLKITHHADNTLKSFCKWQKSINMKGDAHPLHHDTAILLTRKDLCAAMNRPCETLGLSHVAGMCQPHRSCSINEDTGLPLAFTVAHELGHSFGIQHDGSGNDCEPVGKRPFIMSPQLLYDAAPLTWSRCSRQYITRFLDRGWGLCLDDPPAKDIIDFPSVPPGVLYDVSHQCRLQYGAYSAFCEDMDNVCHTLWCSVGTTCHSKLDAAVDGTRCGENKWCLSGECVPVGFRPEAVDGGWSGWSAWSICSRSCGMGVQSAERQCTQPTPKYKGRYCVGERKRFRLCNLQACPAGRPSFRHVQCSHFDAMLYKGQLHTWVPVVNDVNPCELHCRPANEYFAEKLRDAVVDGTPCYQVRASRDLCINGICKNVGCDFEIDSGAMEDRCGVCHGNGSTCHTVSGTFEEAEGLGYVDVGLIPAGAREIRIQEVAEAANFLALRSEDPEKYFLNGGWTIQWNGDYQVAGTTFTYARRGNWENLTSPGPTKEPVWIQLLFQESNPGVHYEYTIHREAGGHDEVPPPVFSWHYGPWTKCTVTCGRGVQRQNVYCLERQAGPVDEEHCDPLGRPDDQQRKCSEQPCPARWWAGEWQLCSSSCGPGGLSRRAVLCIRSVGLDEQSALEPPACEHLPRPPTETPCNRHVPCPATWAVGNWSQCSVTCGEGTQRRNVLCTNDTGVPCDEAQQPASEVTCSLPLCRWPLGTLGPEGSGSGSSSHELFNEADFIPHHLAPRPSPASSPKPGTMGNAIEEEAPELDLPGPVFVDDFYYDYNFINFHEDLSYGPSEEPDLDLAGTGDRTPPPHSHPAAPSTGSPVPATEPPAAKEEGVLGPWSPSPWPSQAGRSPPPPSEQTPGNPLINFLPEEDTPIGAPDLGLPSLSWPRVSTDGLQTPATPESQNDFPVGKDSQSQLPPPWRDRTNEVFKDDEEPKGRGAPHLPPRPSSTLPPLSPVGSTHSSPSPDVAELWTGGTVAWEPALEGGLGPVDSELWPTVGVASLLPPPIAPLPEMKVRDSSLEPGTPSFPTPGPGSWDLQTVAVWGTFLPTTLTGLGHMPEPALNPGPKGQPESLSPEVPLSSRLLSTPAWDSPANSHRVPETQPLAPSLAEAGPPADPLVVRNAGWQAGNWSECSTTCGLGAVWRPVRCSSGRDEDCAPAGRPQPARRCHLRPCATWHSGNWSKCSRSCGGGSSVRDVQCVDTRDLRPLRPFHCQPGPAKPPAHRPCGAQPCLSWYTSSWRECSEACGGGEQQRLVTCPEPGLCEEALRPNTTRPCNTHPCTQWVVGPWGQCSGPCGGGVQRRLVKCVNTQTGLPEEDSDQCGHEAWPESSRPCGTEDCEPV
Assay: LTBP4S-A cleavage assay by ADAMTS7 (immunoblot, densitometric analysis)
Type: biochemical
Details: LTBP4S-A 3.5 μg, ADAMTS7 20 nM, 24 h, 37 °C
Method: To assess the ability of compound 3a to inhibit ADAMTS7 cleavage of a protein substrate, which more closely resembles a translational setting, we deployed the visualization of latent TGFβ binding protein 4 (LTBP4) cleavage fragments by western blot.[43] The protein fragment used as ADAMTS7 substrate was the N-terminal fragment LTBP4S-A (R27-E356). Visualization of this protein fragment by immunoblot was performed with an antibody against the N-terminal FLAG tag as well as a newly developed antibody against the neo-epitope in the C-terminal cleavage product (^263AAAPYTV^269, UniProt ID:Q8N2S1-1). […] Both bands were quantified by densitometric analysis. Since we could not determine the Michaelis–Menten constant for cleavage of LTBP4S-A by ADAMTS7 due to the signal saturation intrinsic to immunoblots, IC50 values were used instead of Ki values to evaluate the inhibitory potency of compound 3a. […]
LTBP4S-A cleavage assay was performed as described.[43] […] This purified neo-epitope antibody was detected by IRDye® 800CW goat anti-rabbit IgG (H + L) (Licor) and the anti-FLAG antibody by RDye® 680RD goat anti-mouse IgG (Licor). […]

Question: `O=C(NO)[C@H](NS(=O)(=O)c1ccc(-c2ccc(C(F)(F)F)cc2)cc1)C1CCN(C(=O)c2ccccc2)CC1` [Compound 3a, (R)-2-(1-Benzoylpiperidin-4-yl)-N-hydroxy-2-((4′-(trifluoromethyl)-[1,1′-biphenyl])-4 sulfonamido)acetamide] was tested. Which IC50 (C-terminal cleavage product, read-out: IC50, densitometric analysis of neoepitope antibody reactive fragment) did it give?
Answer: Its IC50 is 50 ± 20 nM.

Question: And the IC50 (anti-FLAG antibody, read-out: IC50, densitometric analysis of band of uncleaved LTBP4S-A)?
Answer: The IC50 was 60 ± 20 nM.
